In ChEMBL document CHEMBL1157561, “Identification of potent pyrazolo[4,3-h]quinazoline-3-carboxamides as multi-cyclin-dependent kinase inhibitors” (J Med Chem, 2010) one finds IC50 and solubility data, which are given here for 33 compounds.

≈ marks a conversion by molar mass, not a printed value.

One series deals with T1, Aurora kinase A (Homo sapiens, UniProt O14965).
T1 sequence (O14965 whole entry): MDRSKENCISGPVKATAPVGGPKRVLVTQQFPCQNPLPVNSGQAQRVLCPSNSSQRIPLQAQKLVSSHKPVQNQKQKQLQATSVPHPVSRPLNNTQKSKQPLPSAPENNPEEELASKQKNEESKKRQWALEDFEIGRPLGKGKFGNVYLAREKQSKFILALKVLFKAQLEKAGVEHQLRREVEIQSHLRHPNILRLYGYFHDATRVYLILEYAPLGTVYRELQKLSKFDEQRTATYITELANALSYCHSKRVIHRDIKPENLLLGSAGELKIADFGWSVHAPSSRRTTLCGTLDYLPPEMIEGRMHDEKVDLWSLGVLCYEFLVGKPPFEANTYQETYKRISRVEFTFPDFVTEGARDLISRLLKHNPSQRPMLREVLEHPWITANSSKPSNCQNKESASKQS
The experiment in a line: Inhibition of Aurora A.

In another series the test system is A2780. Put plainly: Antiproliferative activity against human A2780 cells after 72 hrs by cell-titer-glo assay. It is filed as functional, cell-based. The settings on record: A2780, 72 h.
The target of series [1] is Cyclin-dependent kinase 2/cyclin A (Homo sapiens, UniProt P24941). The experiment in a line: Inhibition of CDK2/Cyclin A. It is filed as protein-complex assay.
The nature of series [2]: Solubility at pH 7.0. The settings on record: buffer. It is filed as physicochemical.

Usually IC50 stands for the midpoint of a concentration-inhibition curve. Higher therefore signals lower potency. The term solubility denotes how much of the substance goes into solution per volume. Lower therefore signals a poorly soluble substance. As to `Cn1nc(C(N)=O)c2c1-c1nc(NCc3ccncc3)ncc1CC2`, the values for the half-maximal inhibitory concentration (IC50) (against Aurora kinase A; with A2780; in series [1]) were 1920 nM, 1240 nM and 21 nM, respectively. This compound also displayed a solubility in series [2] of 222 µM (≈ 74.5 µg/mL).
Turning to `CNC(=O)c1nn(C)c2c1CCc1cnc(NC3CCCCC3)nc1-2`, the IC50 is above 10000 nM at Aurora kinase A and 8600 nM with A2780. Further, the concentration in solution in series [2] (solubility) came to 50 µM (≈ 17 µg/mL).
`Cn1nc(C(N)=O)c2c1-c1nc(NC3CCCCC3)ncc1CC2`: the half-inhibitory concentration (IC50) was above 10000 nM against Aurora kinase A, 410 nM in the series with A2780 and 4 nM in series [1]. In series [2], this compound returned a solubility below 1 µM.
Taken in the same sequence, the figures for `Cn1nc(C(N)=O)c2c1-c1nc(NCc3cccnc3)ncc1CC2` were 2310 nM, 1390 nM, 21 nM and 138 µM (≈ 46.3 µg/mL).
Consider `Cn1nc(C(N)=O)c2c1-c1nc(NCCO)ncc1CC2`, for which the half-inhibitory concentration (IC50) against Aurora kinase A came to 4600 nM; in the series on A2780, 2550 nM; in series [1] it was 19 nM. The compound also yielded a solubility in series [2] above 225 µM.
As for `NC(=O)c1nn(-c2ccccn2)c2c1CCc1cnc(NC3CCCC3)nc1-2`, the IC50 on Aurora kinase A is above 10000 nM; in the series on A2780, 2160 nM; in series [1], 52 nM. Further, the solubility in series [2] came out at 4.9 µM (≈ 1.84 µg/mL).
On to `CN1CCN(C(=O)N2CCC(Nc3ncc4c(n3)-c3c(c(C(N)=O)nn3C)CC4)CC2)CC1`, for which the IC50 at Aurora kinase A was determined as 4710 nM; in the series with A2780 it was 1300 nM; in series [1], 12 nM. Further, the solubility in series [2] is above 225 µM.
Take `CNC(=O)c1nn(C)c2c1CCc1cnc(NC3CCCC3)nc1-2`: the half-inhibitory concentration (IC50) is above 10000 nM against Aurora kinase A, above 10000 nM with A2780 and 97 nM in series [1]. In series [2], the solubility turned out to be 36 µM (≈ 11.8 µg/mL).
`CC(=O)Nc1ccc(CNc2ncc3c(n2)-c2c(c(C(N)=O)nn2C)CC3)cc1`: the IC50 at Aurora kinase A was determined as 672 nM; in the series with A2780 it was 903 nM; in series [1] it was 13 nM. The solubility in series [2] is above 10 µM.
With `Cn1nc(C(N)=O)c2c1-c1nc(NCc3ccc(S(C)(=O)=O)cc3)ncc1CC2`, the concentration for half-maximal inhibition (IC50) against Aurora kinase A worked out at 890 nM; in the series on A2780 it was 2360 nM; in series [1], 38 nM. The compound also displayed a solubility in series [2] of 138 µM (≈ 56.9 µg/mL).
`CN1CCN(c2ccc(CNc3ncc4c(n3)-c3c(c(C(N)=O)nn3C)CC4)cc2)CC1`: the results for the half-inhibitory concentration (IC50) (on Aurora kinase A; in the series on A2780; in series [1]) were 1290 nM, 1580 nM and 17 nM, respectively. The concentration in solution in series [2] (solubility) was 28 µM (≈ 12.1 µg/mL).
For the compound `NC(=O)c1nn(-c2ccccc2)c2c1CCc1cnc(NC3CCCC3)nc1-2`, the figures for the IC50 (at Aurora kinase A; in the series with A2780; in series [1]) were 4050 nM, 480 nM and 20 nM, respectively. The same compound yielded a solubility in series [2] below 1 µM.
Taken in the same sequence, the figures for `CCN1CCC(Nc2ncc3c(n2)-c2c(c(C(N)=O)nn2C)CC3)CC1` were above 10000 nM, 2460 nM, 149 nM and 221 µM (≈ 78.6 µg/mL).
Regarding `CNC(=O)c1nn(C)c2c1CCc1cnc(NC3CCN(C(C)=O)CC3)nc1-2`, the figures for the IC50 (against Aurora kinase A; in the series on A2780; in series [1]) were above 10000 nM, above 10000 nM and 32 nM, respectively. The same compound registered a solubility in series [2] above 225 µM.
Take `Cn1nc(C(N)=O)c2c1-c1nc(NC3CCCC3)ncc1CC2`: the half-maximal inhibitory concentration (IC50) on Aurora kinase A was above 10000 nM; in the series on A2780, 245 nM; in series [1], 2 nM. In addition, the concentration in solution in series [2] (solubility) was 13 µM (≈ 4.06 µg/mL).
For `Cn1nc(C(N)=O)c2c1-c1nc(NCc3ccccc3)ncc1CC2` the same measures were 1000 nM, 933 nM, 51 nM and above 10 µM.
Consider `COc1cccc(CNc2ncc3c(n2)-c2c(c(C(N)=O)nn2C)CC3)c1`, for which the IC50 against Aurora kinase A worked out at 1140 nM; in the series with A2780, 1980 nM; in series [1], 66 nM. The same compound registered a solubility in series [2] of 4.4 µM (≈ 1.6 µg/mL).
For the compound `COc1ccc(CNc2ncc3c(n2)-c2c(c(C(N)=O)nn2C)CC3)cc1`, the values for the IC50 (at Aurora kinase A; in the series on A2780; in series [1]) were 1450 nM, 4140 nM and 58 nM, respectively. In addition, in series [2], the solubility is below 1 µM.
Take `CN(O)C(=O)c1nn(C)c2c1CCc1cnc(NC3CCCC3)nc1-2`: the IC50 against Aurora kinase A amounted to 3060 nM; in the series with A2780, 5530 nM; in series [1], 175 nM. This compound also yielded a solubility in series [2] of 29 µM (≈ 9.93 µg/mL).
As to `CNC(=O)c1nn(C2CCN(C)CC2)c2c1CCc1cnc(NC3CCCC3)nc1-2`, the values for the half-maximal inhibitory concentration (IC50) (against Aurora kinase A; in the series on A2780; in series [1]) were above 10000 nM, 1590 nM and 59 nM, respectively. The compound further returned a solubility in series [2] of 182 µM (≈ 74.5 µg/mL).
`NC(=O)c1nn(CCO)c2c1CCc1cnc(NC3CCCC3)nc1-2`: the 50% inhibitory concentration (IC50) against Aurora kinase A was 6040 nM; with A2780, 330 nM; in series [1] it was 8 nM. In addition, the solubility in series [2] turned out to be 27 µM (≈ 9.24 µg/mL).
In the case of `NC(=O)c1nn(CC(F)(F)F)c2c1CCc1cnc(NC3CCCC3)nc1-2`, the IC50 on Aurora kinase A was above 10000 nM; in the series with A2780 it was 370 nM; in series [1], 5 nM. Also, the solubility in series [2] was below 1 µM.
As for `CC(=O)N1CCC(n2nc(C(N)=O)c3c2-c2nc(NC4CCCC4)ncc2CC3)CC1`, the results for the concentration for half-maximal inhibition (IC50) (against Aurora kinase A; with A2780; in series [1]) were 1970 nM, 70 nM and 7 nM, respectively. This compound displayed a solubility in series [2] of 179 µM (≈ 75.8 µg/mL).
Taken in the same sequence, the figures for `CN1CCC(Nc2ncc3c(n2)-c2c(c(C(N)=O)nn2C)CC3)CC1` were above 10000 nM, 2000 nM, 351 nM and above 225 µM.
As to `CN1CCC(n2nc(C(N)=O)c3c2-c2nc(NC4CCCC4)ncc2CC3)CC1`, the results for the IC50 (against Aurora kinase A; in the series on A2780; in series [1]) were above 10000 nM, 46 nM and 6 nM, respectively. This compound also returned a solubility in series [2] of 181 µM (≈ 71.6 µg/mL).
`COc1ccc(-n2nc(C(N)=O)c3c2-c2nc(NC4CCCC4)ncc2CC3)cc1`: the values for the IC50 (at Aurora kinase A; with A2780; in series [1]) were 2310 nM, 557 nM and 6 nM, respectively. Also, the solubility in series [2] was below 1 µM.
For `Cn1nc(C(N)=O)c2c1-c1nc(NCCN3CCOCC3)ncc1CC2` the same measures were above 10000 nM, 8660 nM, 209 nM and 214 µM (≈ 76.5 µg/mL).
In the case of `Cn1nc(C(=O)N(O)C2CCCCC2)c2c1-c1nc(NC3CCCC3)ncc1CC2`, the half-maximal inhibitory concentration (IC50) was found to be 3840 nM against Aurora kinase A, 3970 nM in the series with A2780 and 296 nM in series [1]. This compound also registered a solubility in series [2] below 1 µM.
Turning to `NC(=O)c1nn(-c2ccc(S(N)(=O)=O)cc2)c2c1CCc1cnc(NC3CCCC3)nc1-2`, the values for the 50% inhibitory concentration (IC50) (on Aurora kinase A; in the series with A2780; in series [1]) were 442 nM, 1000 nM and 5 nM, respectively. The compound also returned a solubility in series [2] of 108 µM (≈ 49 µg/mL).
As to `CNC(=O)c1nn(C)c2c1CCc1cnc(NC3CCN(C(=O)c4ccccc4)CC3)nc1-2`, the IC50 against Aurora kinase A was above 10000 nM; with A2780 it was 822 nM; in series [1], 25 nM. Besides, the solubility in series [2] was determined as 168 µM (≈ 74.8 µg/mL).
Regarding `NC(=O)c1nn(Cc2ccccc2)c2c1CCc1cnc(NC3CCCC3)nc1-2`, the IC50 at Aurora kinase A was above 10000 nM; with A2780, 840 nM; in series [1] it was 23 nM. Moreover, the solubility in series [2] was below 1 µM.
For the compound `Cn1nc(C(N)=O)c2c1-c1nc(NCc3ccccn3)ncc1CC2`, the half-inhibitory concentration (IC50) at Aurora kinase A stood at 4640 nM; in the series with A2780, 5120 nM; in series [1], 87 nM. In series [2], this compound registered a solubility of 123 µM (≈ 41.3 µg/mL).
On to `Cn1nc(C(N)=O)c2c1-c1nc(NCc3ccc(Br)cc3)ncc1CC2`, for which the half-maximal inhibitory concentration (IC50) stood at 1690 nM against Aurora kinase A, 567 nM with A2780 and 81 nM in series [1]. In series [2], this compound showed a solubility below 1 µM.
